Assay results: patent publication US7001616B2, “Microspheres for use in the treatment of cancer” (University of Florida, priority 1998, dated 2006)
Counter-ions that a name gives are not always drawn.

Key:
Assay type in all cases: physicochemical
[1] = Total percent loading of microspheres with test dye; settings: 9-aminoacridine, 100 mg per ml of methanol; spheres from suspension polymerization
Experimental: (§1) All four compositions produced in Example 1 were tested for release properties using 9-aminoacridine (Aldrich) (free from HCl) as a test dye. A 100–150 mg sample of each composition (from the 50–80 μm size group) was first washed twice with methanol, allowed to dry, and then immersed in a saturated solution of 9-aminoacridine in methanol (10 wt %) for 24 hours. The methanol was allowed to evaporate (usually for 24 hours) and the microspheres were washed by a repeated process of suspension and centrifuging (Adams Dynac centrifuge) in fresh neutral pH water (at least 10 cycles). The loaded spheres were collected in a paper filter cone and dried in an oven at 60° C. under vacuum.
For each composition, 5 mg of dye-loaded spheres were placed in glass vials (Fisher 20 ml scintillation vials) containing 15 ml of citric acid buffer (0.05 M, I=0.3) at pH 6.0, 6.5, and 6.8. The buffer solutions consisted of citric acid (anhydrous, Fisher Scientific), NaOH (Fisher Scientific), deionized water, and NaCl (Aldrich). A total of three samples were used from each composition at each pH value to account for error involved with the weighing of the microspheres. At least five samples (5 ml each) were taken from each vial over a 14 day period and the concentration of dye released was determined spectrophotometrically at 400 nm using a Perkin-Elmer Lambda 3B UV/VIS spectrophotometer. […]

[2] = Release of test dye from microspheres in buffer over 14 days
Experimental: as §1
[…] […] A total of three samples were used from each composition at each pH value to account for error involved with the weighing of the microspheres. At least five samples (5 ml each) were taken from each vial over a 14 day period and the concentration of dye released was determined spectrophotometrically at 400 nm using a Perkin-Elmer Lambda 3B UV/VIS spectrophotometer. Each sample was replaced with fresh buffer solution. A 5 mg sample of each composition was also placed into 15 ml of pH 2.5 citric acid buffer (0.05 M) for 24 hours to determine the total percent loading (mg dye released/mg loaded spheres) for the microspheres.

[3] = Total percent loading of microspheres with FUDR; settings: 5 mg/ml FUDR in methanol; 50/49/1 microspheres, 50–80 μm
Experimental: (§2) Initial FUDR Test. 150 mg of 50–80 μm diameter EMA/DEA/DVB (in a ratio of 50/49/1) microspheres were washed twice with methanol, dried and then immersed in 1 ml of methanol containing 5 mg FUDR. After 24 hours the methanol was allowed to evaporate and the loaded spheres were dispersed in 50 ml of distilled water and centrifuged repeatedly for 10 cycles. The spheres were collected and allowed to dry in a cone filter under the hood for 24 hours. 10 mg of the loaded spheres were placed in each of two separate vials containing either 15 ml of pH 6.8 citric acid buffer (0.05 M I=0.3) or pH 7.4 potassium phosphate monobasic-NaOH buffer (0.05M, Fisher Scientific). Each vial was agitated by hand daily and a total of 5 samples (5 ml each) were taken over a 14 day period and measured spectrophotometrically at 268 nm to determine the FUDR concentration in solution. Each sample was replaced using fresh buffer. The total percent loading was determined by the same process after placing a 10 mg sample of spheres into 15 ml of pH 4.0 citric acid buffer for 24 hours.

[4] = In vitro FUDR release from microspheres in buffer; settings: 50/49/1 microspheres
Experimental: as §2
Follow-up FUDR Release. […] Sample volumes of 5 ml and 3 ml were taken from the pH 6.6 and 6.9 buffers, respectively.

[5] = In vitro doxorubicin release from microspheres in buffer; settings: pH 6.75; 50/49/1 microspheres
Experimental: Doxorubicin Release. The doxorubicin release experiments were carried out in the same manner as the FUDR and dye release. 150 mg of 50–80 μm diameter microspheres were cleaned and immersed in 1 ml of methanol containing 5 mg of the drug for 24 hours and the methanol was allowed to evaporate slowly under the hood. The loaded microspheres were cleaned and dried and 10 mg samples were placed into 20 ml glass vials (Fisher Scientific). 15 ml of citric acid buffer was placed into each vial such that there were three samples each at pH values of 6.6, 6.75, and 6.9. Drug release at pH 7.4 was performed using 15 ml potassium phosphate buffer added to each of the remaining three vials. Drug release was measured spectrophotometrically at 479 nm.

## Nc1c2ccccc2nc2ccccc12 [test dye, 9-aminoacridine]
[1]
  dye loading as restated in text: about 15%
[2]; pH 6.8 citric acid buffer
  test dye release after 14 days: 76%
[2]; pH 6.9 citric acid buffer
  test dye release after 14 days: 63%
[2]; pH 7.4 potassium phosphate monobasic-NaOH buffer
  test dye release after two weeks: over 10%

## O=c1[nH]c(=O)n([C@H]2C[C@H](O)[C@@H](CO)O2)cc1F [FUDR, fluorodeoxyuridine]
[3]
  FUDR loading level: 1.4 weight percentage
[4]; pH 6.8
  FUDR release over 14 day period: 80%
[4]; pH 6.9
  FUDR 14 day release: 55%
[4]; pH 7.4
  FUDR release: over 10%

## COc1cccc2c1C(=O)c1c(O)c3c(c(O)c1C2=O)C[C@@](O)(C(=O)CO)C[C@@H]3O[C@H]1C[C@H](N)[C@H](O)[C@H](C)O1 [doxorubicin, hydroxydaunomycin hydrochloride]
[5]
  doxorubicin release over two week period: 75%
